According to patent US7019007B2 (Syntex (U.S.A.) LLC, priority 2001, dated 2006):

Target: T1, CCR-3 receptor (Homo sapiens, UniProt P51677)
T1 construct: expressed in transfected cells; host or cells: L1.2 (murine pre-B lymphoma line) stably transfected with CCR-3
T1 sequence (P51677 1-355): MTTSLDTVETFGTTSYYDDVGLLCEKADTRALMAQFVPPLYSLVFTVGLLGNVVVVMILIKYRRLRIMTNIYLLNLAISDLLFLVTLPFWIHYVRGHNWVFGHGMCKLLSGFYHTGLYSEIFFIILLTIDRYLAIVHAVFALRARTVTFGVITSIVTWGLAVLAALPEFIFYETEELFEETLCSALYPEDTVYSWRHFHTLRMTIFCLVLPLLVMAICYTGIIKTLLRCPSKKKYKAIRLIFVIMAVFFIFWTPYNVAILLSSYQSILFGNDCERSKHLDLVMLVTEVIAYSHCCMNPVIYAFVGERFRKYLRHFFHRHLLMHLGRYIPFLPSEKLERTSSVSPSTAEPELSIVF
Assay: CCR-3 Receptor Binding Assay - In Vitro (inhibition of 125I eotaxin binding to CCR-3 L1.2 transfectant cells)
Conditions: inhibition of binding of 125I-eotaxin to CCR-3 L1.2 transfectant cells, 1 hour at room temperature
Protocol: The CCR-3 antagonistic activity of the compounds of the invention was determined by their ability to inhibit the binding of ^125 I eotaxin to CCR-3 L1.2 transfectant cells (see Ponath, P. D. et al., J. Exp. Med., Vol. 183, 2437–2448, (1996)).
The assay was performed in Costar 96-well polypropylene round bottom plates. Test compounds were dissolved in DMSO and then diluted with binding buffer (50 mM HEPES, 1 mM CaCl2, 5 mM MgCl2, 0.5% bovine serum albumin (BSA), 0.02% sodium azide, pH 7.24) such that the final DMSO concentration was 2%. 25 μl of the test solution or only buffer with DMSO (control samples) was added to each well, followed by the addition of 25 μl of ^125I-eotaxin ([…]) (NEX314, New England Nuclear, Boston, Mass.) and 1.5×10^5 of the CCR-3 L1.2 transfected cells in 25 μl binding buffer. The final reaction volume was 75 μl.
After incubating the reaction mixture for 1 hour at room temperature, the reaction was terminated by filtering the reaction mixture through polyethylenimine treated Packard Unifilter GF/C filter plate (Packard, Chicago, Ill.). The filters were washed four times with ice cold wash buffer containing 10 mm HEPES and 0.5M sodium chloride (pH 7.2) and dried at 65° C. for approximately 10 minutes. 25 μl/well of Microscint-20® scintillation fluid (Packard) was added and the radioactivity retained on the filters was determined by using the Packard TopCount®.

IC50 [nM] | Structure (SMILES)
499 | C=CCNC(=O)N[C@@H]1CCC[C@H]1N1CCC(Cc2ccc(Cl)cc2)CC1
2910 | O=C(N[C@@H]1CCC[C@H]1N1CCC(Cc2ccc(Cl)cc2)CC1)C1CCCCC1 [Cyclohexanecarboxylic acid {(1R,2R)-2-[4-(4-chloro-benzyl)-piperidin-1-yl]-cyclopentyl}-amide]
885 | CC(C)NC(=O)N[C@@H]1CCC[C@H]1N1CCC(Cc2ccc(Cl)cc2)CC1
507 | CCCCNC(=O)N[C@@H]1CCC[C@H]1N1CCC(Cc2ccc(Cl)cc2)CC1
398 | O=C(NC1CCCCC1)N[C@@H]1CCC[C@H]1N1CCC(Cc2ccc(Cl)cc2)CC1
729 | CCOC(=O)CCNC(=O)N[C@@H]1CCC[C@H]1N1CCC(Cc2ccc(Cl)cc2)CC1
